Patent publication US8835466B2, “Synthesis and uses of pyroglutamic acid derivatives” (Prodimed, S.A., priority 2006, dated 2014)

Experiments:
[1] = test system: ASB XIV cells (pulmonary squamous cell carcinoma); experiment: Effect of isomers and BLAS on in vivo tumour growth, ASB XIV tumours (Example 8); set-up: species or system Balb/c mice; settings: for Tumour surface, overall values (Mean) / Tumour surface, overall values (Median) / Tumour volume, overall values (Mean) / Tumour volume, overall values (Median): 260 ng/mouse i.p. days 6, 7 and 14
Description: This assay was made in order to compare the effect of each stereoisomer on in vivo tumour growth in mice with the effect of the mixture of all of them challenged with ASB XIV tumours. The stereoisomers assayed were the same as in example 7 above plus a mixture of all of them (BLAS). The equipment (when needed), reagents, dose, vehicle and route and volume of administration were the same as in example 7.
ASB XIV is a pulmonary squamous cell carcinoma originated in Balb/c mouse strain, and therefore syngeneic in mice with Balb/c genetic background.
(§1) ASB XIV cells (CLS, Eppelheim, Germany) were maintained in vitro by serial passages every 3-4 days. Cultures were performed with RPMI medium medium (RPMI, 10% foetal calf serum, 2 mM L-glutamine, non essential aminoacids, 1 mM sodium pyruvate, 20 mM HEPES, 80 μg/mL gentamycin; all of them were purchased from Sigma, St. Louis, Mo., USA) by seeding 5×10^6 cells onto 75 cm^2 culture flasks. Tumour cells collected from 48 hour cultures upon trypsinization (Sigma, St. Louis, Mo., USA) were used as source of ASB XIV cells in the present example.
• BLAS (mixture of isomers 1, 2, 3 and 4) at a concentration of 65 μg/mL in sterile physiological saline. Isomer 1 (9b) at a concentration of 65 μg/mL in sterile physiological saline. • Isomer 2 (9c) at a concentration of 65 μg/mL in sterile physiological saline. • Isomer 3 (9a) at a concentration of 65 μg/mL in sterile physiological saline. • Isomer 4 (9d) at a concentration of 65 μg/mL in sterile physiological saline. Placebo
Tumours were established by subcutaneous inoculation in the right hind flank. Mice (Balb/c) were inoculated with 0.2 mL containing 2×10^5 viable ASB XIV cells. The day of subcutaneous inoculation will be considered Day 0 of the test.
Mice were observed daily and the tumour size recorded twice a week. This was carried out by measuring two perpendicular diameters (d1/d2) with a calliper. These measures were used to obtain both tumour surface and volume: Tumour surface=d1×d2(mm^2) Tumour volume=d1×d2^2×½(mm^3)
(§2) Results were expressed as single values and/or as the mean±SD or median from each experimental group.
(§3) A case-control study was performed with treated and control mice in order to determine whether differences between BLAS or each diferent stereoisomer and administration of placebo were present. […] The U-test of Mann Withney was chosen for being one of the better known non-parametrical tests, anyway, results for this test are equivalent both to those of Wilcoxon's sum of ranges and Kruskal-Wallis two-groups test.
Due to the high dispersion of data, outlayers (animals beyond percentile 10 or above percentile 90 for tumour surface at day 33) were excluded of the study.

[2] = test system: Renca cells (renal cell carcinoma); experiment: Effect of isomers on in vivo tumour growth in mice challenged with Renca cells (Example 7); set-up: species or system Balb/c mice; settings: for Tumour surface, overall values (Mean) / Tumour surface, overall values (Median) / Tumour volume, overall values (Mean) / Tumour volume, overall values (Median): 260 ng/mouse i.p. days 6, 7, 14
Description: This assay was made in order to check the effect of each stereoisomer on in vivo tumour growth in mice challenged with Renca cells. Their effect was compared with placebo. The stereoisomers assayed were:
Renca is a renal cell carcinoma originated in Balb/c mouse strain, and therefore syngeneic in mice with Balb/c genetic background [Melder R J et al., Cancer Immunol. Immunother., 2005, 54:535-547; Felluga B et al., 1969, J. Natl. Cancer Inst. 43:319-333]. Renca is considered a moderate immunogenic tumour and used as suitable model for testing immunointervention approaches [Salup R R, et al., 1992, The Journal of Urology, 147:1120-1123].
as §1, with “Renca cells” for “ASB XIV cells”, “essential amino acids,” for “essential aminoacids,”, “of Renca” for “of ASB XIV”, “cells for” for “cells in”, “the studies described below.” for “the present example.”
Each isomer was tested at the dose levels of 260 ng administered on days 6, 7 and 14 after tumour inoculation.
The treatments were given by intraperitoneal route (i.p.). The volume inoculated was 0.2 mL/animal. This route was chosen because it is the one described in the original method [Pérez S, et al., 2003, Clinical Cancer Research. 9:5776-5785].
Tumours were established by subcutaneous inoculation in the right hind flank. Mice (Balb/c) were inoculated with 0.2 mL containing 10^5 viable Renca cells. The day of subcutaneous inoculation will be considered Day 0 of the test.
Mice were observed daily and the tumour size recorded twice a week. This was carried out by measuring two perpendicular diameters (L/W) with a calliper. These measures were used to obtain both tumour surface and volume: Tumour surface=L×W(mm^2) Tumour volume=L×W^2×½(mm^3)
as §2
as §3, with “isomers” for “BLAS or each diferent stereoisomer”
Due to the high dispersion of data, outlayers (animals beyond percentile 25 or above percentile 75 for tumour surface at day 25) were excluded of the study.

[3] = day 12 after tumour inoculation
[4] = day 15 after tumour inoculation
[5] = day 19 after tumour inoculation
[6] = day 22 after tumour inoculation
[7] = day 26 after tumour inoculation
[8] = day 29 after tumour inoculation
[9] = day 33 after tumour inoculation
[10] = day 11 after tumour inoculation
[11] = day 14 after tumour inoculation

## Br.N[C@]1(C[n+]2ccccc2)C[C@H](C(=O)O)NC1=O.[Br-] (single isomer, unassigned; isomer 4) [isomer 4, 3S,5R-1-(3-Amino-5-carboxy-2-oxopyrrolidin-3-ylmethyl)pyridinium bromide hidrobromide]
[1]; 260 ng i.p. days 6, 7 and 14
  Inhibition of the in vivo growth of the lung carcinoma ASB XIV, in words: inhibit the in vivo growth
[1]; day 0 after tumour inoculation
  Tumour surface, overall values (Mean): 0 mm^2
  Tumour surface, overall values (Median): 0 mm^2
  Tumour volume, overall values (Mean): 0 mm^3
  Tumour volume, overall values (Median): 0 mm^3
[1]; day 8 after tumour inoculation
  Tumour surface, overall values (Mean): 0 mm^2
  Tumour surface, overall values (Median): 0 mm^2
  Tumour volume, overall values (Mean): 0 mm^3
  Tumour volume, overall values (Median): 0 mm^3
[1]; [3]
  Tumour surface, overall values (Mean): 0.17 mm^2
  Tumour surface, overall values (Median): 0 mm^2
  Tumour volume, overall values (Mean): 0.16 mm^3
  Tumour volume, overall values (Median): 0 mm^3
[1]; [4]
  Tumour surface, overall values (Mean): 2.79 mm^2
  Tumour surface, overall values (Median): 0 mm^2
  Tumour volume, overall values (Mean): 5.29 mm^3
  Tumour volume, overall values (Median): 0 mm^3
[1]; [5]
  Tumour surface, overall values (Mean): 14.59 mm^2
  Tumour surface, overall values (Median): 9 mm^2
  Tumour volume, overall values (Mean): 36.5 mm^3
[1]; [6]
  Tumour surface, overall values (Mean): 34.52 mm^2
  Tumour volume, overall values (Mean): 118.19 mm^3
[1]; [7]
  Tumour surface, overall values (Mean): 65.86 mm^2
  Tumour surface, overall values (Median): 49 mm^2
  Tumour volume, overall values (Mean): 297.83 mm^3
  Tumour volume, overall values (Median): 171.5 mm^3
[1]; [8]
  Tumour surface, overall values (Mean): 90.28 mm^2
  Tumour surface, overall values (Median): 81 mm^2
  Tumour volume, overall values (Mean): 451.55 mm^3
  Tumour volume, overall values (Median): 364.5 mm^3
[1]; [9]
  Tumour surface, overall values (Mean): 123.45 mm^2
  Tumour surface, overall values (Median): 110 mm^2
  Tumour volume, overall values (Mean): 700.66 mm^3
  Tumour volume, overall values (Median): 550 mm^3
[1]; either in surface or volume, all days scored after the day 26th
  Differences in ASB XIV tumour growth rate vs. placebo, statistical significance p (Mann-Whitney U test): < 0.05
[2]; 260 ng i.p. days 6, 7, 14
  Inhibition of the in vivo growth of the renal cell carcinoma (Renca), in words: inhibit the in vivo growth
  Inhibitory effect on Renca tumour growth compared among isomers, in words: highest inhibitory effect
[2]; day 0 after tumour inoculation
  Tumour surface, overall values (Mean): 0 mm^2
  Tumour surface, overall values (Median): 0 mm^2
  Tumour volume, overall values (Mean): 0 mm^3
  Tumour volume, overall values (Median): 0 mm^3
[2]; [10]
  Tumour surface, overall values (Mean): 0 mm^2
  Tumour surface, overall values (Median): 0 mm^2
  Tumour volume, overall values (Mean): 0 mm^3
  Tumour volume, overall values (Median): 0 mm^3
[2]; [11]
  Tumour surface, overall values (Median): 0 mm^2
  Tumour volume, overall values (Median): 0 mm^3
[2]; day 18 after tumour inoculation
  Tumour surface, overall values (Median): 9 mm^2
[2]; either in surface or volume, all days scored after the day 14th
  Differences in Renca tumour growth rate vs. placebo, statistical significance p (Mann-Whitney U test): < 0.01

## Br.N[C@@]1(C[n+]2ccccc2)C[C@@H](C(=O)O)NC1=O.[Br-] (single isomer, unassigned; isomer 1) [isomer 1, 3R,5S-1-(3-Amino-5-carboxy-2-oxopyrrolidin-3-ylmethyl)pyridinium bromide hidrobromide]
[1]; day 0 after tumour inoculation
  Tumour surface, overall values (Mean): 0 mm^2
  Tumour surface, overall values (Median): 0 mm^2
  Tumour volume, overall values (Mean): 0 mm^3
  Tumour volume, overall values (Median): 0 mm^3
[1]; day 8 after tumour inoculation
  Tumour surface, overall values (Mean): 0 mm^2
  Tumour surface, overall values (Median): 0 mm^2
  Tumour volume, overall values (Mean): 0 mm^3
  Tumour volume, overall values (Median): 0 mm^3
[1]; [3]
  Tumour surface, overall values (Mean): 0.32 mm^2
  Tumour surface, overall values (Median): 0 mm^2
  Tumour volume, overall values (Mean): 0.45 mm^3
  Tumour volume, overall values (Median): 0 mm^3
[1]; [4]
  Tumour surface, overall values (Mean): 3.45 mm^2
  Tumour surface, overall values (Median): 0 mm^2
  Tumour volume, overall values (Mean): 5.34 mm^3
  Tumour volume, overall values (Median): 0 mm^3
[1]; [5]
  Tumour surface, overall values (Mean): 19.65 mm^2
  Tumour surface, overall values (Median): 16 mm^2
  Tumour volume, overall values (Mean): 53.37 mm^3
  Tumour volume, overall values (Median): 32 mm^3
[1]; [6]
  Tumour surface, overall values (Mean): 46.81 mm^2
  Tumour volume, overall values (Mean): 179.79 mm^3
[1]; [7]
  Tumour surface, overall values (Mean): 92.52 mm^2
  Tumour surface, overall values (Median): 72 mm^2
  Tumour volume, overall values (Mean): 474.10 mm^3
  Tumour volume, overall values (Median): 288 mm^3
[1]; [8]
  Tumour surface, overall values (Mean): 125.16 mm^2
  Tumour surface, overall values (Median): 110 mm^2
  Tumour volume, overall values (Mean): 733.26 mm^3
  Tumour volume, overall values (Median): 550 mm^3
[1]; [9]
  Tumour surface, overall values (Mean): 165.65 mm^2
  Tumour surface, overall values (Median): 154 mm^2
  Tumour volume, overall values (Mean): 1114.37 mm^3
  Tumour volume, overall values (Median): 864 mm^3
[2]; day 0 after tumour inoculation
  Tumour surface, overall values (Mean): 0 mm^2
  Tumour surface, overall values (Median): 0 mm^2
  Tumour volume, overall values (Mean): 0 mm^3
  Tumour volume, overall values (Median): 0 mm^3
[2]; [10]
  Tumour surface, overall values (Median): 0 mm^2
  Tumour volume, overall values (Median): 0 mm^3
